In brackets after ≈: the same amount, converted by molar mass. Read-outs that look alike come from different tables or passages of the source.
Legend:
Staphylococcus = assay: microbe, parasite or virus in culture; assay type: cell-based; conditions: Staphylococcus, read-out: MICs
Bacillus = assay: microbe, parasite or virus in culture; assay type: cell-based; conditions: read-out: MICs
Clostridium perfringens [1] = assay: microbe, parasite or virus in culture; assay type: cell-based; conditions: read-out: MICs
Streptococcus = assay: microbe, parasite or virus in culture; assay type: cell-based; conditions: read-out: MICs
Mycobacterium smegmatis = assay: microbe, parasite or virus in culture; assay type: cell-based; conditions: Mycolicibacterium smegmatis, read-out: MICs
Clostridium perfringens [2] = assay: microbe, parasite or virus in culture; assay type: cell-based; conditions: Clostridium perfringens
MRSA T144 = conditions: Galleria mellonella infected with MRSA T144, 2 mg/kg b.w. 1 hour after infection, within 5 days
Enterococcus = assay: microbe, parasite or virus in culture; assay type: cell-based; conditions: read-out: MICs
[3] = MIC against pathogenic fungi, Candida ATCC 6258; assay type: cell-based; conditions: Candida albicans ATCC 6258 (Candida krusei ATCC 6258)
[4] = tested on: Aspergillus flavus ATCC 11492; assay: MIC against pathogenic fungi, Aspergillus flavus; assay type: cell-based
[5] = tested on: Aspergillus niger ATCC 96918; assay: MIC against pathogenic fungi, Aspergillus niger; assay type: cell-based; conditions: Aspergillus niger ATCC 96918
[6] = tested on: Trichophyton ATCC MTA-4439; assay: MIC against pathogenic fungi, Trichophyton; assay type: cell-based; conditions: Trichophyton ATCC MTA-4439

CN[C@H](CC(C)C)C(=O)N[C@H]1C(=O)N[C@@H](CC(N)=O)C(=O)N[C@H]2C(=O)N[C@H]3C(=O)N[C@H](C(=O)N[C@H](C(=O)O)c4cc(O)cc(O)c4-c4cc3ccc4O)[C@H](O)c3ccc(c(Cl)c3)Oc3cc2cc(c3O[C@@H]2O[C@H](CO)[C@@H](O)[C@H](O)[C@H]2O[C@H]2C[C@](C)(N)[C@H](O)[C@H](C)O2)Oc2ccc(cc2Cl)[C@H]1O [VAN, Vancomycin]
MIC (Staphylococcus): 1 µg/mL (≈ 0.69 µM) | MIC (Bacillus): 0.5 µg/mL (≈ 0.345 µM) | MIC (Clostridium perfringens [1]): 0.5 µg/mL (≈ 0.345 µM) | MIC (Streptococcus): 0.25 µg/mL (≈ 0.173 µM) | MIC (Mycobacterium smegmatis): 16 µg/mL (≈ 11 µM) | MIC (Clostridium perfringens [2]; read-out: MIC value against Clostridium perfringens): ≤ 0.25 µg/mL | protective rate (MRSA T144): 40%

CC(=O)NC[C@H]1CN(c2ccc(N3CCOCC3)c(F)c2)C(=O)O1 [linezolid]
MIC (Enterococcus): 1 µg/mL (≈ 2.96 µM)

CCC[C@@H]1C[C@@H](C(=O)N[C@@H]([C@H]2O[C@H](SC)[C@H](O)[C@@H](O)[C@H]2O)[C@@H](C)O)N(C)C1 [LIN, Lincomycin]
MIC50 (Clostridium perfringens [2]): 8 µg/mL (≈ 19.7 µM) | MIC90 (Clostridium perfringens [2]): > 128 µg/mL | MIC (Clostridium perfringens [2]; read-out: MIC value against Clostridium perfringens, strain A3-1 (A-type)): 1 µg/mL (≈ 2.46 µM) | MIC (Clostridium perfringens [2]; read-out: MIC value against Clostridium perfringens, strain A3-2 (A-type)): 0.5 µg/mL (≈ 1.23 µM) | MIC (Clostridium perfringens [2]; read-out: MIC value against Clostridium perfringens, strain A57-1 (A-type)): 2 µg/mL (≈ 4.92 µM) | MIC (Clostridium perfringens [2]; read-out: MIC value against Clostridium perfringens, strain B4 (B-type)): > 128 µg/mL | MIC (Clostridium perfringens [2]; read-out: MIC value against Clostridium perfringens, strain B5 (B-type)): > 128 µg/mL | MIC (Clostridium perfringens [2]; read-out: MIC value against Clostridium perfringens, strain C3 (C-type)): > 128 µg/mL | MIC (Clostridium perfringens [2]; read-out: MIC value against Clostridium perfringens, strain C8 (C-type)): 128 µg/mL (≈ 315 µM) | MIC (Clostridium perfringens [2]; read-out: MIC value against Clostridium perfringens, strain C59-1 (C-type)): 0.5 µg/mL (≈ 1.23 µM) | MIC (Clostridium perfringens [2]; read-out: MIC value against Clostridium perfringens, strain D14B (D-type)): 64 µg/mL (≈ 157 µM) | MIC (Clostridium perfringens [2]; read-out: MIC value against Clostridium perfringens, strain F5-2 (F-type)): 128 µg/mL (≈ 315 µM) | MIC (Clostridium perfringens [2]; read-out: MIC value against Clostridium perfringens, strain F6-1 (F-type)): 32 µg/mL (≈ 78.7 µM) | MIC (Clostridium perfringens [2]; read-out: MIC value against Clostridium perfringens, strain F6-2 (F-type)): 32 µg/mL (≈ 78.7 µM) | MIC (Clostridium perfringens [2]; read-out: MIC value against Clostridium perfringens, strain F6-2-1 (F-type)): 128 µg/mL (≈ 315 µM) | MIC (Clostridium perfringens [2]; read-out: MIC value against Clostridium perfringens, strain F6-2-2 (F-type)): 128 µg/mL (≈ 315 µM) | MIC (Clostridium perfringens [2]; read-out: MIC value against Clostridium perfringens, strain F7-1 (F-type)): > 128 µg/mL | MIC (Clostridium perfringens [2]; read-out: MIC value against Clostridium perfringens, strain F8-1 (F-type)): > 128 µg/mL | MIC (Clostridium perfringens [2]; read-out: MIC value against Clostridium perfringens, strain H12-1 (H-type)): 0.5 µg/mL (≈ 1.23 µM) | MIC (Clostridium perfringens [2]; read-out: MIC value against Clostridium perfringens, strain H12-2 (H-type)): ≤ 0.25 µg/mL | MIC (Clostridium perfringens [2]; read-out: MIC value against Clostridium perfringens, strain H13-1 (H-type)): 4 µg/mL (≈ 9.84 µM) | MIC (Clostridium perfringens [2]; read-out: MIC value against Clostridium perfringens, strain H14-1 (H-type)): 8 µg/mL (≈ 19.7 µM) | MIC (Clostridium perfringens [2]; read-out: MIC value against Clostridium perfringens, strain H14-2 (H-type)): 8 µg/mL (≈ 19.7 µM) | MIC (Clostridium perfringens [2]; read-out: MIC value against Clostridium perfringens, strain H14-4 (H-type)): 4 µg/mL (≈ 9.84 µM) | MIC (Clostridium perfringens [2]; read-out: MIC value against Clostridium perfringens, strain H15-1 (H-type)): ≤ 0.25 µg/mL | MIC (Clostridium perfringens [2]; read-out: MIC value against Clostridium perfringens, strain H15-2 (H-type)): 4 µg/mL (≈ 9.84 µM) | MIC (Clostridium perfringens [2]; read-out: MIC value against Clostridium perfringens, strain H15-3 (H-type)): 4 µg/mL (≈ 9.84 µM) | MIC (Clostridium perfringens [2]; read-out: MIC value against Clostridium perfringens, strain H16 (H-type)): 4 µg/mL (≈ 9.84 µM)

C[C@@H]1[C@H](O)[C@@H](C)/C=C/C=C/C=C/C=C/C=C/C=C/C=C/[C@H](O[C@@H]2O[C@H](C)[C@@H](O)[C@H](N)[C@@H]2O)C[C@@H]2O[C@](O)(C[C@@H](O)C[C@@H](O)[C@H](O)CC[C@@H](O)C[C@@H](O)CC(=O)O[C@H]1C)C[C@H](O)[C@H]2C(=O)O [Amphotericin B]
MICs [3]: 0.5 µg/mL | MICs [4]: 0.25 µg/mL | MICs [5]: 0.125 µg/mL | MICs [6]: 0.25 µg/mL

O=C(Nc1cc(F)c(Cl)c(Cl)c1)c1cc(Cl)ccc1O [BAB166]
MIC50 (Clostridium perfringens [2]): 32 µg/mL (≈ 95.6 µM)

Source: US12435031B2, “Compound with broad-spectrum antibacterial activity and its antibacterial composition” (CHINA AGRICULTURAL UNIVERSITY, priority 2023, dated 2025)
